According to article PMC6133161, “Thiazoles with cyclopropyl fragment as antifungal, anticonvulsant, and anti-Toxoplasma gondii agents: synthesis, toxicity evaluation, and molecular docking study” (Medicinal Chemistry Research, 2018):
In brackets after ≈: the same amount, converted by molar mass.

Test system: C. pulcherrima
Test: Broth microdilution MIC/MFC, clinical isolate
Type: cell-based
Settings: C. pulcherrima clinical strain; read-out: MFC
From the text: (§1) In the study of antifungal activity of the compounds 3a–3j, 15 clinical strains of different species of yeasts from Candida species, namely C. albicans, C. dubliniensis C. famata, C. inconspicua, C. krusei, C. tropicalis, C. glabrata, C. lambica, C. kefyr, C. lusitaniae, C. parapsilosis, C. guilliermondii, C. lusitaniae, C. pulcherrima and C. sake were also used. These fungi were isolated by the author (from Department of Pharmaceutical Microbiology of Medical University in Lublin, Poland) from different clinical materials, e.g., from upper respiratory tract of hospitalized patients including cancer patients (i.e., with non-small cell lung cancer or hematological malignancies). Some patients were after pre-operative or post-operative chemotherapy (treated with etoposide or cis-platin given in doses according to the standard procedures), patients with chronic hepatitis C (undergoing peginterferon and ribavirin therapy or without antiviral therapy), patients with diabetes, elderly people, aged of 65 years old or older, staying in close population, such as a care centre and people staying outside the home care. The Ethical Committee of the Medical University of Lublin approved the study protocol (No. KE-0254/75/2011). The isolates were identified by standard diagnostic methods—biochemical microtest, e.g., API 20C AUX, ID 32C, API Candida (bioMérieux) on the basis of assimilation of various substrates. All the used microbial cultures were first subcultured on nutrient agar or Sabouraud agar for bacteria and fungi, respectively. The RPMI 1640 with MOPS (for fungi) were inoculated with the suspensions of fungal species. Microbial suspensions were prepared in sterile saline (0.85% NaCl) with an optical density of 0.5 McFarland standard scale (Wiegand et al. [2008]). Samples containing examined compounds were dissolved in dimethyl sulfoxide (DMSO). Furthermore, fungal suspensions were put onto Petri dishes with solid media containing 2 mg/ml of the tested compounds followed incubation under appropriate conditions. The inhibition of microbial growth was judged by comparison with a control culture prepared without any sample tested. Nystatin (Sigma) was used as a reference antifungal compound. Subsequently MIC minimal inhibitory concentration (MIC) of the compounds was examined by the microdilution broth method, using their two-fold dilutions in RPMI 1640 broth with MOPS prepared in 96-well polystyrene plates. Final concentrations of the compounds ranged from 1000 to 0.0038 µg/ml. Microbial suspensions were prepared in sterile saline with an optical density of 0.5 McFarland standard. Next fungal suspension was added per each well containing broth and various concentrations of the examined compounds. After incubation, the MIC was assessed spectrophotometric as the lowest concentration of the samples showing complete fungal growth inhibition. Appropriate DMSO, growth and sterile controls were carried out. The medium with no tested substances was used as a control (Wiegand et al. [2008]). The minimal fungicidal concentration (MFC) are defined as the lowest concentration of the compounds that is required to kill a particular fungal species. MFC was determined by removing the culture using for MIC determinations from each well and spotting onto appropriate agar medium. The plates were incubated. The lowest compounds concentration with no visible growth observed was assessed as a fungicidal concentration. All the experiments were repeated three times and representative data are presented.
(§2) The MFC/MIC ratios were calculated in order to determine fungicidal (MFC/MIC ≤ 4) or fungistatic (MFC/MIC > 4) effect of the tested compounds (O’Donnell et al. [2010]).

SMILES	MFC
Cc1ccc(-c2csc(N/N=C/C3CC3)n2)cc1 [Compound 3d, (E)-2-(2-(Cyclopropylmethylene)hydrazinyl)-4-p-tolylthiazole]	> 1000 µg/mL

Same assay, conditions: C. pulcherrima clinical strain; read-out: MIC

MIC	SMILES
15.6 µg/mL (≈ 60.7 µM)	Cc1ccc(-c2csc(N/N=C/C3CC3)n2)cc1 [Compound 3d, (E)-2-(2-(Cyclopropylmethylene)hydrazinyl)-4-p-tolylthiazole]

Test system: C. lusitaniae
Test: Broth microdilution MIC/MFC, clinical isolate
Type: cell-based
Settings: Clavispora lusitaniae; C. lusitaniae clinical strain; read-out: MFC
From the text: as §1, §2

SMILES	MFC
Cc1ccc(-c2csc(N/N=C/C3CC3)n2)cc1 [Compound 3d, (E)-2-(2-(Cyclopropylmethylene)hydrazinyl)-4-p-tolylthiazole]	0.48 µg/mL (≈ 1.87 µM)

Same assay, conditions: Clavispora lusitaniae; C. lusitaniae clinical strain; read-out: MIC

MIC	SMILES
0.12 µg/mL (≈ 0.466 µM)	Cc1ccc(-c2csc(N/N=C/C3CC3)n2)cc1 [Compound 3d, (E)-2-(2-(Cyclopropylmethylene)hydrazinyl)-4-p-tolylthiazole]

Test system: C. parapsilosis
Test: Broth microdilution MIC/MFC, clinical isolate
Type: cell-based
Settings: Lodderomyces parapsilosis; C. parapsilosis clinical strain; read-out: MFC
From the text: as §1, §2

SMILES	MFC
Cc1ccc(-c2csc(N/N=C/C3CC3)n2)cc1 [Compound 3d, (E)-2-(2-(Cyclopropylmethylene)hydrazinyl)-4-p-tolylthiazole]	0.24 µg/mL (≈ 0.933 µM)

Same assay, conditions: Lodderomyces parapsilosis; C. parapsilosis clinical strain; read-out: MIC

MIC	SMILES
0.06 µg/mL (≈ 0.233 µM)	Cc1ccc(-c2csc(N/N=C/C3CC3)n2)cc1 [Compound 3d, (E)-2-(2-(Cyclopropylmethylene)hydrazinyl)-4-p-tolylthiazole]

Test system: C. dubliniensis
Test: Broth microdilution MIC/MFC, clinical isolate
Type: cell-based
Settings: Candida dubliniensis; C. dubliniensis clinical strain; read-out: MFC
From the text: as §1, §2

SMILES	MFC
Cc1ccc(-c2csc(N/N=C/C3CC3)n2)cc1 [Compound 3d, (E)-2-(2-(Cyclopropylmethylene)hydrazinyl)-4-p-tolylthiazole]	0.12 µg/mL (≈ 0.466 µM)

Same assay, conditions: Candida dubliniensis; C. dubliniensis clinical strain; read-out: MIC

MIC	SMILES
0.06 µg/mL (≈ 0.233 µM)	Cc1ccc(-c2csc(N/N=C/C3CC3)n2)cc1 [Compound 3d, (E)-2-(2-(Cyclopropylmethylene)hydrazinyl)-4-p-tolylthiazole]

Test system: C. famata
Test: Broth microdilution MIC/MFC, clinical isolate
Type: cell-based
Settings: Debaryomyces hansenii; C. famata clinical strain; read-out: MFC
From the text: as §1, §2

SMILES	MFC
Cc1ccc(-c2csc(N/N=C/C3CC3)n2)cc1 [Compound 3d, (E)-2-(2-(Cyclopropylmethylene)hydrazinyl)-4-p-tolylthiazole]	3.91 µg/mL (≈ 15.2 µM)

Same assay, conditions: Debaryomyces hansenii; C. famata clinical strain; read-out: MIC

MIC	SMILES
0.48 µg/mL (≈ 1.87 µM)	Cc1ccc(-c2csc(N/N=C/C3CC3)n2)cc1 [Compound 3d, (E)-2-(2-(Cyclopropylmethylene)hydrazinyl)-4-p-tolylthiazole]

Test system: C. tropicalis
Test: Broth microdilution MIC/MFC, clinical isolate
Type: cell-based
Settings: Candida tropicalis; C. tropicalis clinical strain; read-out: MFC
From the text: as §1, §2

SMILES	MFC
Cc1ccc(-c2csc(N/N=C/C3CC3)n2)cc1 [Compound 3d, (E)-2-(2-(Cyclopropylmethylene)hydrazinyl)-4-p-tolylthiazole]	0.12 µg/mL (≈ 0.466 µM)

Same assay, conditions: Candida tropicalis; C. tropicalis clinical strain; read-out: MIC

MIC	SMILES
0.06 µg/mL (≈ 0.233 µM)	Cc1ccc(-c2csc(N/N=C/C3CC3)n2)cc1 [Compound 3d, (E)-2-(2-(Cyclopropylmethylene)hydrazinyl)-4-p-tolylthiazole]

Test system: C. sake
Test: Broth microdilution MIC/MFC, clinical isolate
Type: cell-based
Settings: Fermentozyma sake; C. sake clinical strain; read-out: MFC
From the text: as §1, §2

SMILES	MFC
Cc1ccc(-c2csc(N/N=C/C3CC3)n2)cc1 [Compound 3d, (E)-2-(2-(Cyclopropylmethylene)hydrazinyl)-4-p-tolylthiazole]	0.48 µg/mL (≈ 1.87 µM)

Same assay, conditions: Fermentozyma sake; C. sake clinical strain; read-out: MIC

MIC	SMILES
0.12 µg/mL (≈ 0.466 µM)	Cc1ccc(-c2csc(N/N=C/C3CC3)n2)cc1 [Compound 3d, (E)-2-(2-(Cyclopropylmethylene)hydrazinyl)-4-p-tolylthiazole]

Test system: C. albicans
Test: Broth microdilution MIC/MFC, clinical isolate
Type: cell-based
Settings: Candida albicans; C. albicans clinical strain; read-out: MFC
From the text: as §1, §2

SMILES	MFC
Cc1ccc(-c2csc(N/N=C/C3CC3)n2)cc1 [Compound 3d, (E)-2-(2-(Cyclopropylmethylene)hydrazinyl)-4-p-tolylthiazole]	0.24 µg/mL (≈ 0.933 µM)

Same assay, conditions: Candida albicans; C. albicans clinical strain; read-out: MIC

MIC	SMILES
0.12 µg/mL (≈ 0.466 µM)	Cc1ccc(-c2csc(N/N=C/C3CC3)n2)cc1 [Compound 3d, (E)-2-(2-(Cyclopropylmethylene)hydrazinyl)-4-p-tolylthiazole]

Test system: C. kefyr
Test: Broth microdilution MIC/MFC, clinical isolate
Type: cell-based
Settings: Kluyveromyces marxianus; C. kefyr clinical strain; read-out: MFC
From the text: as §1, §2

SMILES	MFC
Cc1ccc(-c2csc(N/N=C/C3CC3)n2)cc1 [Compound 3d, (E)-2-(2-(Cyclopropylmethylene)hydrazinyl)-4-p-tolylthiazole]	7.81 µg/mL (≈ 30.3 µM)

Same assay, conditions: Kluyveromyces marxianus; C. kefyr clinical strain; read-out: MIC

MIC	SMILES
1.95 µg/mL (≈ 7.58 µM)	Cc1ccc(-c2csc(N/N=C/C3CC3)n2)cc1 [Compound 3d, (E)-2-(2-(Cyclopropylmethylene)hydrazinyl)-4-p-tolylthiazole]

Test system: C. inconspicua
Test: Broth microdilution MIC/MFC, clinical isolate
Type: cell-based
Settings: Pichia inconspicua; C. inconspicua clinical strain; read-out: MFC
From the text: as §1, §2

SMILES	MFC
Cc1ccc(-c2csc(N/N=C/C3CC3)n2)cc1 [Compound 3d, (E)-2-(2-(Cyclopropylmethylene)hydrazinyl)-4-p-tolylthiazole]	0.98 µg/mL (≈ 3.81 µM)

Same assay, conditions: Pichia inconspicua; C. inconspicua clinical strain; read-out: MIC

MIC	SMILES
0.12 µg/mL (≈ 0.466 µM)	Cc1ccc(-c2csc(N/N=C/C3CC3)n2)cc1 [Compound 3d, (E)-2-(2-(Cyclopropylmethylene)hydrazinyl)-4-p-tolylthiazole]

Test system: C. krusei
Test: Broth microdilution MIC/MFC, clinical isolate
Type: cell-based
Settings: Pichia kudriavzevii; C. krusei clinical strain; read-out: MFC
From the text: as §1, §2

SMILES	MFC
Cc1ccc(-c2csc(N/N=C/C3CC3)n2)cc1 [Compound 3d, (E)-2-(2-(Cyclopropylmethylene)hydrazinyl)-4-p-tolylthiazole]	0.98 µg/mL (≈ 3.81 µM)

Same assay, conditions: Pichia kudriavzevii; C. krusei clinical strain; read-out: MIC

MIC	SMILES
0.24 µg/mL (≈ 0.933 µM)	Cc1ccc(-c2csc(N/N=C/C3CC3)n2)cc1 [Compound 3d, (E)-2-(2-(Cyclopropylmethylene)hydrazinyl)-4-p-tolylthiazole]

Test system: C. glabrata
Test: Broth microdilution MIC/MFC, clinical isolate
Type: cell-based
Settings: Nakaseomyces glabratus; C. glabrata clinical strain; read-out: MFC
From the text: as §1, §2

SMILES	MFC
Cc1ccc(-c2csc(N/N=C/C3CC3)n2)cc1 [Compound 3d, (E)-2-(2-(Cyclopropylmethylene)hydrazinyl)-4-p-tolylthiazole]	> 1000 µg/mL

Same assay, conditions: Nakaseomyces glabratus; C. glabrata clinical strain; read-out: MIC

MIC	SMILES
15.6 µg/mL (≈ 60.7 µM)	Cc1ccc(-c2csc(N/N=C/C3CC3)n2)cc1 [Compound 3d, (E)-2-(2-(Cyclopropylmethylene)hydrazinyl)-4-p-tolylthiazole]

Test system: C. lambica
Test: Broth microdilution MIC/MFC, clinical isolate
Type: cell-based
Settings: Pichia fermentans; C. lambica clinical strain; read-out: MFC
From the text: as §1, §2

SMILES	MFC
Cc1ccc(-c2csc(N/N=C/C3CC3)n2)cc1 [Compound 3d, (E)-2-(2-(Cyclopropylmethylene)hydrazinyl)-4-p-tolylthiazole]	> 1000 µg/mL

Same assay, conditions: Pichia fermentans; C. lambica clinical strain; read-out: MIC

MIC	SMILES
15.6 µg/mL (≈ 60.7 µM)	Cc1ccc(-c2csc(N/N=C/C3CC3)n2)cc1 [Compound 3d, (E)-2-(2-(Cyclopropylmethylene)hydrazinyl)-4-p-tolylthiazole]

Test system: C. guilliermondii
Test: Broth microdilution MIC/MFC, clinical isolate
Type: cell-based
Settings: Meyerozyma guilliermondii; C. guilliermondii clinical strain; read-out: MFC
From the text: as §1, §2

SMILES	MFC
Cc1ccc(-c2csc(N/N=C/C3CC3)n2)cc1 [Compound 3d, (E)-2-(2-(Cyclopropylmethylene)hydrazinyl)-4-p-tolylthiazole]	3.91 µg/mL (≈ 15.2 µM)

Same assay, conditions: Meyerozyma guilliermondii; C. guilliermondii clinical strain; read-out: MIC

MIC	SMILES
0.48 µg/mL (≈ 1.87 µM)	Cc1ccc(-c2csc(N/N=C/C3CC3)n2)cc1 [Compound 3d, (E)-2-(2-(Cyclopropylmethylene)hydrazinyl)-4-p-tolylthiazole]

Test system: Toxoplasma gondii RH strain
Test: [3H]-uracil incorporation assay in VERO host cells
Settings: Toxoplasma gondii, Vero, read-out: Proliferation of Toxoplasma gondii RH strain ± SD

SMILES	activity at 0.98 µg/mL	activity at 1.95 µg/mL	activity at 3.91 µg/mL	activity at 7.81 µg/mL	activity at 15.63 µg/mL
Cc1ccc(-c2csc(N/N=C/C3CC3)n2)cc1 [Compound 3d, (E)-2-(2-(Cyclopropylmethylene)hydrazinyl)-4-p-tolylthiazole]	88.7 ± 2.63%	100 ± 4.54%	93.4 ± 5.18%	90.4 ± 3.29%	84.41 ± 0.08%
